Source: US12364690B2, “Therapeutic agent for bile duct cancer” (NATIONAL CANCER CENTER, priority 2015, dated 2025)
Like-named read-outs stand apart in the source and are kept apart here.

Legend:
[1] = biological target: NIH3T3 cells transfected with FGFR2-TXLNA (Homo sapiens, UniProt P21802, DEL126-151/R152G); conditions: final concentration 0.2 μM; soft agar; FIG. 5 and FIG. 6
Description: (§1) Using the following apparatus, the activity of FGFR inhibitors on the transformation capacity of FGFR2 fusion polypeptide was evaluated.

[2] = biological target: NIH3T3 cells transfected with FGFR2-KCTD1 (Homo sapiens, UniProt P21802); conditions: final concentration 0.2 μM; soft agar; FIG. 5 and FIG. 6
NIH3T3 cells transfected with FGFR2-KCTD1, sequence (P21802 with tags, fused parts or gaps isoform P21802-22): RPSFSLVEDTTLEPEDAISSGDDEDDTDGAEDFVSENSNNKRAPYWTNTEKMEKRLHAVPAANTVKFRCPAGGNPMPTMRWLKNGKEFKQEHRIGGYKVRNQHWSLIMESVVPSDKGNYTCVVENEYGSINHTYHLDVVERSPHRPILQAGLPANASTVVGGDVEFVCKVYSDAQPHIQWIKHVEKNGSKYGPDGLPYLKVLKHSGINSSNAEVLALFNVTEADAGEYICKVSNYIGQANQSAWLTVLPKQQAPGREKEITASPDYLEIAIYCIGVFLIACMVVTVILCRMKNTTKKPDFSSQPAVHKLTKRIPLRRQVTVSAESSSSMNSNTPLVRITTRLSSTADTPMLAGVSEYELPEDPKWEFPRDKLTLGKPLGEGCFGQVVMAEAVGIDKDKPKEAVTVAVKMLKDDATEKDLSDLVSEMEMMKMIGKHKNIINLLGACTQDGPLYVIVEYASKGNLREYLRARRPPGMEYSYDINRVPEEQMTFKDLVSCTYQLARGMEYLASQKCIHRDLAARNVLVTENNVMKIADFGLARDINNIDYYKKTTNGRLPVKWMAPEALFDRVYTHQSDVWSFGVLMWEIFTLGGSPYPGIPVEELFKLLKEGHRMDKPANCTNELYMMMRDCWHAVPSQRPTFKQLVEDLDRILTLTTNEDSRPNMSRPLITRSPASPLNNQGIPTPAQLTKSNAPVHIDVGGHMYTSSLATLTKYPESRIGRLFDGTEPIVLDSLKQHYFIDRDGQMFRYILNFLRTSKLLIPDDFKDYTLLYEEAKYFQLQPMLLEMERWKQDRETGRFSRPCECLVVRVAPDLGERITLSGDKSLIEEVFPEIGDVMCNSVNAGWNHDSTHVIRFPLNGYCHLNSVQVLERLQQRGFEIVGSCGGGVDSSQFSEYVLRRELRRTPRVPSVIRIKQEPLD
Description: as §1

[3] = biological target: NIH3T3 cell transfected with FGFR2-BICC1 type2 (Homo sapiens, UniProt P21802, DEL126-151/R152G)
NIH3T3 cell transfected with FGFR2-BICC1 type2, sequence (P21802 with tags, fused parts or gaps isoform P21802-22 DEL37-62/R63G): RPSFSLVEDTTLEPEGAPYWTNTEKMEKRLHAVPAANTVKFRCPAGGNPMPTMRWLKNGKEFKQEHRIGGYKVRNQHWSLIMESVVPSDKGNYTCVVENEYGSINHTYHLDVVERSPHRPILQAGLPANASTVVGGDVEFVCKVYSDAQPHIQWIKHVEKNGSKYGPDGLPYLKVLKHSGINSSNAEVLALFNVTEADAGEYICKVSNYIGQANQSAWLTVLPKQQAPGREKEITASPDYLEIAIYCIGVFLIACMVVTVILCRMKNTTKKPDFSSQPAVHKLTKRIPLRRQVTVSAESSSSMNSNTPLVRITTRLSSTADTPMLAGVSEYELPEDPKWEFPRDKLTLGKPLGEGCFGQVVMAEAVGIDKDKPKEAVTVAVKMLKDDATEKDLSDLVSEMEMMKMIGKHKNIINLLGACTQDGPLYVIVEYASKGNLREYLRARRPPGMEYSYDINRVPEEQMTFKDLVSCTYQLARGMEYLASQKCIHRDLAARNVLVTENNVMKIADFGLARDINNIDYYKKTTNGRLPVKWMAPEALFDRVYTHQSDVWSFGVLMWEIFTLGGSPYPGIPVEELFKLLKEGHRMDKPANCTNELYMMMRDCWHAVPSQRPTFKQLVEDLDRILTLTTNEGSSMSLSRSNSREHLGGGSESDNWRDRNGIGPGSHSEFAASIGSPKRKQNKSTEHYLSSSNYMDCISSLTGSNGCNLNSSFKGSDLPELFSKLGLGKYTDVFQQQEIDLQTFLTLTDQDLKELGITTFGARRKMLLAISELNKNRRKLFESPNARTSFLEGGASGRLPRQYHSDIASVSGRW
Description: as §1

[4] = test system: NIH3T3 cell line transfected with the FGFR2 fusion gene; assay: Immunoblot (Western blot) analysis of downstream signal of FGFR2 fusion gene; format: cell-based, mouse; conditions: final concentration of FGFR inhibitor 0.2 μM or 0.5 μM, FIG. 3
Description: First, the wild-type FGFR2 fusion gene or KD mutant FGFR2 fusion gene was transfected into the mouse fibroblast cell line NIH3T3 using the retrovirus, and the obtained cell line was cultured in a liquid culture medium. The cultured cell line was subjected to serum starvation, and then treated with a culture medium containing an FGFR inhibitor before extracting the total proteins. Herein, the protein encoded by FGFR2-BICC1 type2, the protein encoded by FGFR2-TXLNA and the protein encoded by FGFR2-KCTD1 are shown in SEQ ID NOs: 6, 2 and 4, respectively.
Next, the NIH3T3 cell line transfected with the FGFR2 fusion gene was subjected to Western blot analysis after adding the FGFR inhibitor to the cell line (the final concentration of the FGFR inhibitor: 0.2 μM or 0.5 μM) and extracting the total proteins similarly.

[5] = Relative body weight in transplant model mice (safety of dosage); format: in vivo, mouse; conditions: 6.25, 12.5, 25 and 50 mg/kg orally once a day; dosage judged as safe
Description: Based on the tumor volume on the first day of administration, the mice were grouped so that mean values of the tumor volume of the groups were nearly equal to each other. […]. The Compound A solution was continuously administered orally to the mice in the Compound A administration group once a day at a dosage of 20 mL/kg. On the other hand, only the solvent (water for injection) was similarly administered to the mice in the control group. The Administration was carried out to FGFR2-BICC1 type2 or FGFR2-KCTD1 transplant model mice for 7 days and to FGFR2-TXLNA transplant model mice for 11 days.
On the first day and the last day of the administration, body weight was measured for each mice in the control group and the Compound A administration group. The ratio of the body weight on the last day to the body weight on the first day (relative body weight: RBW) was calculated. When the RBW of the Compound A administration group/the RBW of the control group was 0.9 or more, the dosage was judged as safe. The corresponding dosage was 6.25, 12.5, 25 and 50 mg/kg.

NIH3T3 cells transfected with FGFR2-TXLNA, sequence (P21802 with tags, fused parts or gaps isoform P21802-22 DEL37-62/R63G): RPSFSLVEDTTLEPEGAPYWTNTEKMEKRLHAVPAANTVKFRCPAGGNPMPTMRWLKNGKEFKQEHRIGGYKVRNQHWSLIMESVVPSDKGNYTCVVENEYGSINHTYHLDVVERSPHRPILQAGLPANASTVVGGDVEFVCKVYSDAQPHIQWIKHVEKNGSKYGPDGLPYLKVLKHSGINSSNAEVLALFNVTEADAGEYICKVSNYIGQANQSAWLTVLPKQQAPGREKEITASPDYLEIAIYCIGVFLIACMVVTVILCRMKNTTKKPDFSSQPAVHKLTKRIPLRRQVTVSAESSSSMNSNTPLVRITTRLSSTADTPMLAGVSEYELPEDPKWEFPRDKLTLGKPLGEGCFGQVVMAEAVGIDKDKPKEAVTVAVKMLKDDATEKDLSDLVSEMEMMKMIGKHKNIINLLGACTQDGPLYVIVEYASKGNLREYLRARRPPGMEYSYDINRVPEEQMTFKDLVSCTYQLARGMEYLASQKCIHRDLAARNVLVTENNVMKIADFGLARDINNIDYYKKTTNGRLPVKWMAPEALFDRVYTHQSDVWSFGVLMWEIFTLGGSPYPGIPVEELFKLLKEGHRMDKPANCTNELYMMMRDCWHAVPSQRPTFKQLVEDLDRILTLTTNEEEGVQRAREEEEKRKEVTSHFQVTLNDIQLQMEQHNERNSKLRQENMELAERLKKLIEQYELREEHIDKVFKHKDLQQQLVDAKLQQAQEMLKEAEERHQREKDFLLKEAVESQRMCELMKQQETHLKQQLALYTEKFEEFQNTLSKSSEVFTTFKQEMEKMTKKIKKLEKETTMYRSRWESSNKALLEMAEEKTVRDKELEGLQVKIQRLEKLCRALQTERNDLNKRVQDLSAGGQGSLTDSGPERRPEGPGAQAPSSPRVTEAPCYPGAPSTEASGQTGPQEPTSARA

| SMILES | anchorage independent growth [1] | anchorage independent growth [2] | anchorage independent growth ([3]; final concentration 0.2 μM, soft agar, FIG. 5 and FIG. 6) | anchorage independent growth ([3]; final concentration 1.0 μM, FIG. 7) | phosphorylation of FGFR [4] | phosphorylation of MAPK [4] | RBW of the Compound A administration group/the RBW of the control group [5] |
| --- | --- | --- | --- | --- | --- | --- | --- |
| CCN1CCN(c2ccc(Nc3cc(N(C)C(=O)Nc4c(Cl)c(OC)cc(OC)c4Cl)ncn3)cc2)CC1 [BGJ398] | significantly suppressed | significantly suppressed | little suppressed | suppressed | suppressed | significantly suppressed |  |
| CNC(=O)n1ccc2cc(Oc3ccnc(NC(=O)c4ccc(C5CCN(CCO)CC5)cc4)c3)c(OCCOC)cc21 [Compound A, 5-((2-(4-(1-(2-hydroxyethyl)piperidin-4-yl)benzamide)pyridin-4-yl)oxy)-6-(2-methoxyethoxy)-N-methyl-1H-indole-1-carboxamide 1.5 succinate] |  |  |  |  | suppressed | significantly suppressed | ≥ 0.9 |
| CCN(CC)CCCCNc1ncc2cc(-c3cc(OC)cc(OC)c3)c(NC(=O)NC(C)(C)C)nc2n1 [PD173074] |  |  |  |  | suppressed | significantly suppressed |  |
